Key:
[1] = test system: Human immunodeficiency virus 1; assay: Antiviral activity against Human immunodeficiency virus 1 NL4-3 infected in human MT4 cells assessed as reduction in virus-induced cytopathogenicity measured after 5 days by MTT assay; assay type: functional, organism-based; conditions: Human immunodeficiency virus 1, NL4-3, MT4, 120 h
[2] = Cytotoxicity against Human immunodeficiency virus 1 NL4-3 infected in human MT4 cells assessed as reduction in cell viability measured after 5 days by MTT assay; assay type: cell-based; conditions: MT4 cells infected with HIV-1 NL4-3, time 5 day
[3] = Cytotoxicity against Human immunodeficiency virus 1 NLAD8 infected in human PM1 cells expressing CCR5 assessed as cell viability measured after 5 days by MTT assay; assay type: cell-based; conditions: PM1 cells expressing CCR5 infected with HIV-1 NLAD8, time 5 day
[4] = test system: Human immunodeficiency virus 1; assay: Antiviral activity against Human immunodeficiency virus 1 NLAD-8 infected in human PM1 cells expressing CCR5 assessed as reduction in virus-induced cytopathogenicity measured after 5 days by MTT assay; assay type: functional, organism-based; conditions: Human immunodeficiency virus 1, NLAD-8, PM1, 120 h

Structure (SMILES)	EC50 [1]	CC50 at 120 h [2]	CC50 at 120 h [3]	EC50 [4]
CC[C@H](C)[C@H](NC(C)=O)C(=O)N[C@H](C(=O)N[C@@H](CCCNC(=N)N)C(=O)N[C@@H](CCSC)C(=O)N[C@@H](Cc1ccc(O)cc1)C(=O)N[C@@H](CO)C(=O)N1CCC[C@H]1C(=O)N[C@H](C(=O)N[C@@H](CC(F)(F)P(=O)(O)O)C(=O)N[C@H](C(=O)N[C@@H](CC(C)C)C(=O)N[C@@H](CC(=O)O)C(=O)N[C@H](C(=O)N[C@@H](CCCNC(=N)N)C(=O)N[C@@H](CCC(N)=O)C(=O)NCC(=O)N[C@@H](CSCC(=O)N[C@@H](CCCNC(=N)N)C(=O)N[C@@H](CCCNC(=N)N)C(=O)N[C@@H](CCCNC(=N)N)C(=O)N[C@@H](CCCNC(=N)N)C(=O)N[C@@H](CCCNC(=N)N)C(=O)N[C@@H](CCCNC(=N)N)C(=O)N[C@@H](CCCNC(=N)N)C(=O)N[C@@H](CCCNC(=N)N)C(N)=O)C(N)=O)[C@@H](C)CC)[C@@H](C)CC)[C@@H](C)O)C(C)C	> 50 µM	> 50 µM	> 50 µM	> 50 µM
COC[C@@H](c1ccc(C(F)(F)F)cc1)N1CCN(C2(C)CCN(C(=O)c3c(C)ncnc3C)CC2)C[C@@H]1C [VICRIVIROC]	> 5 µM	> 5 µM	> 5 µM	0.014 µM
CC[C@H](C)[C@H](NC(C)=O)C(=O)N[C@H](C(=O)N[C@@H](CCCNC(=N)N)C(=O)N[C@@H](CCSC)C(=O)N[C@@H](Cc1ccc(O)cc1)C(=O)N[C@@H](CO)C(=O)N1CCC[C@H]1C(=O)N[C@H](C(=O)N[C@@H](COP(=O)(O)O)C(=O)N[C@H](C(=O)N[C@@H](CC(C)C)C(=O)N[C@@H](CC(=O)O)C(=O)N[C@H](C(=O)N[C@@H](CCCNC(=N)N)C(=O)N[C@@H](CCC(N)=O)C(=O)NCC(=O)N[C@@H](CSCC(=O)N[C@@H](CCCNC(=N)N)C(=O)N[C@@H](CCCNC(=N)N)C(=O)N[C@@H](CCCNC(=N)N)C(=O)N[C@@H](CCCNC(=N)N)C(=O)N[C@@H](CCCNC(=N)N)C(=O)N[C@@H](CCCNC(=N)N)C(=O)N[C@@H](CCCNC(=N)N)C(=O)N[C@@H](CCCNC(=N)N)C(N)=O)C(N)=O)[C@@H](C)CC)[C@@H](C)CC)[C@@H](C)O)C(C)C	> 44 µM	44 µM	> 50 µM	> 50 µM
CC[C@H](C)[C@H](NC(C)=O)C(=O)N[C@H](C(=O)N[C@@H](CCCNC(=N)N)C(=O)N[C@@H](CCSC)C(=O)N[C@@H](Cc1ccc(O)cc1)C(=O)N[C@@H](CO)C(=O)N1CCC[C@H]1C(=O)N[C@H](C(=O)N[C@@H](CO)C(=O)N[C@H](C(=O)N[C@@H](CC(C)C)C(=O)N[C@@H](CC(=O)O)C(=O)N[C@H](C(=O)N[C@@H](CCCNC(=N)N)C(=O)N[C@@H](CCC(N)=O)C(=O)NCC(=O)N[C@@H](CSCC(=O)N[C@@H](CCCNC(=N)N)C(=O)N[C@@H](CCCNC(=N)N)C(=O)N[C@@H](CCCNC(=N)N)C(=O)N[C@@H](CCCNC(=N)N)C(=O)N[C@@H](CCCNC(=N)N)C(=O)N[C@@H](CCCNC(=N)N)C(=O)N[C@@H](CCCNC(=N)N)C(=O)N[C@@H](CCCNC(=N)N)C(N)=O)C(N)=O)[C@@H](C)CC)[C@@H](C)CC)[C@@H](C)O)C(C)C	4.6 µM	9.3 µM	18 µM	1.2 µM
Cc1cn([C@H]2C[C@H](N=[N+]=[N-])[C@@H](CO)O2)c(=O)[nH]c1=O [ZIDOVUDINE]	0.043 µM	> 50 µM	> 100 µM	0.3 µM
CC[C@H](C)[C@H](NC(C)=O)C(=O)N[C@H](C(=O)N[C@@H](CCCNC(=N)N)C(=O)N[C@@H](CCSC)C(=O)N[C@@H](Cc1ccc(O)cc1)C(=O)N[C@@H](CO)C(=O)N1CCC[C@H]1C(=O)N[C@H](C(=O)N[C@@H](CCC(=O)O)C(=O)N[C@H](C(=O)N[C@@H](CC(C)C)C(=O)N[C@@H](CC(=O)O)C(=O)N[C@H](C(=O)N[C@@H](CCCNC(=N)N)C(=O)N[C@@H](CCC(N)=O)C(=O)NCC(=O)N[C@@H](CSCC(=O)N[C@@H](CCCNC(=N)N)C(=O)N[C@@H](CCCNC(=N)N)C(=O)N[C@@H](CCCNC(=N)N)C(=O)N[C@@H](CCCNC(=N)N)C(=O)N[C@@H](CCCNC(=N)N)C(=O)N[C@@H](CCCNC(=N)N)C(=O)N[C@@H](CCCNC(=N)N)C(=O)N[C@@H](CCCNC(=N)N)C(N)=O)C(N)=O)[C@@H](C)CC)[C@@H](C)CC)[C@@H](C)O)C(C)C	> 31 µM	31 µM	> 50 µM	> 50 µM
c1cc(CN2CCCNCCNCCCNCC2)ccc1CN1CCCNCCNCCCNCC1 [PLERIXAFOR]	0.035 µM	> 50 µM	> 50 µM	> 50 µM
